Legend:
[1] = AUC in Sprague-Dawley rat at 1 mg/kg, iv by LC/MS/MS analysis; format: ADME, organism-based; conditions: in vivo
[2] = Volume of distribution at steady state in Sprague-Dawley rat at 1 mg/kg, iv by LC/MS/MS analysis; format: ADME, organism-based; conditions: in vivo, read-out: Vdss

| AUC [1] | Vd [2] | Structure (SMILES) |
| --- | --- | --- |
| 220 ng·h/mL | 28.6 L/kg | N#Cc1cccc(N2CCN(CCCCNC(=O)c3ccc(-c4ccsc4)cc3)CC2)c1 |
| 210 ng·h/mL | 55.7 L/kg | O=C(NCCCCN1CCN(c2cc(Cl)cc(Cl)c2)CC1)c1ccc(-c2ccsc2)cc1 |

Source: ChEMBL document CHEMBL4346764, “Design, synthesis, and evaluation of N-(4-(4-phenyl piperazin-1-yl)butyl)-4-(thiophen-3-yl)benzamides as selective dopamine D3 receptor ligands” (Bioorg Med Chem Lett, 2019)
